Source: US10495630B2, “Methods for the determination of compounds or compositions for the treatment of lipofuscin related diseases and compounds or compositions” (KATAIRO GMBH, priority 2014, dated 2019)

Assays:
[1] = system: human retinal pigment epithelium (RPE) cells; assay: Degradation of lipofuscin in human RPE cells (micrographs after one week); type: cell-based; conditions: test compound alone (SAD 50 μg/ml; cardioxane 10, 50 or 100 μM), one week incubation
Method: To explore the role of the reactive chemical species the human retinal pigment epithelium (RPE) cells were treated with the super oxide anion donor (SAD) soraprazan ((7R,8R,9R)-2,3-Dimethyl-8-hydroxy-7-ethoxy-9-phenyl-7,8,9,10-tetrahydro-imidazo-[1,2-h][1,7]-naphthyridin)—a member of the THPE family—either alone or in combination with a known radical oxygen scavenger, cardioxane.
After growing the hRPE-cells to confluence, the test compounds were added to seven cell cultures and the cells were incubated at 37° C. and 5% CO2. The SAD was added to the cell cultures in a concentration of 50 μg/ml either alone or in combination with cardioxane in a concentration of 10 μM, 50 μM or 100 μM. Additionally, three cell cultures were incubated only with cardioxane in a concentration of 10 μM, 50 μM or 100 μM. As control, one cell culture was grown without test compounds.
After one week of incubation micrographs of the differently incubated RPE cells were taken as shown in FIG. 2A to H. In the original images, lipofuscin in cells is visible as a yellow-gold-orange fluorescent structure, before a blue background. In the grey scale reproduction in FIG. 2 the yellow-gold-orange structure appear light grey (yellow) or dark grey (gold-orange) before a grey background. Areas of degradation of lipofuscin in the hRPE cells appears as bright blue to whitish structures which appear white in the in the grey scale reproduction and are circled in FIG. 2A.
The bright blue structures are only observed in the experimental set up with SAD alone (FIG. 2A).

[2] = In vitro (cell-free) degradation of A2E in aqueous solution, LCMS; type: biochemical; conditions: cell free; in solution under illumination by visible light
Method: The degradation of N-retinylidene-N-retinylethanolamine (A2E)—component of lipofuscin—in an aqueous solution water was measured in the presence of potential degradation mediators and light illumination.
In a cell-free assay, A2E was dissolved in deionized H2O in a concentration of 20 μM and the solution was divided into two parts. To one part of the A2E solution verteporfin was added in an amount of 25 μM. […]
The amounts of A2E and its epoxides (A2E+O, A2E+2O) remaining were quantified by combined liquid chromatography and mass spectroscopy (LCMS) using the transitions indicated in Table 1.

[3] = system: melanin A2E particles; assay: Assay for binding to A2E melanin particles; parameters: species or system S. officinalis; conditions: FIG. 3A; 37° C., 4 h
Method: To study the binding of A2E to melanin, a suspension of 2 mg/ml natural melanin (S. officinalis) is prepared in PBS, pH 7.4. The melanin suspension is brought to 37° C. and sonicated for 15 min to form a uniform suspension. The melanin suspension (0.75 ml) is measured in aliquots into glass test tubes (12×75 mm) under continuous shaking to avoid sedimentation. The solution of A2E (0.75 ml) is added to the above-mentioned melanin aliquots, and the tubes will be incubated in a shaker incubator at 37° C. and 300 rpm for 4 h.
Controls are prepared by incubating A2E in the absence of melanin in incubation medium and by incubating melanin without A2E. Compounds are added to melanin suspension from stock solutions. After incubation, the suspensions are centrifuged at 13,000 rpm for 15 min at room temperature to remove the melanin granules. The supernatant is collected, diluted with acetonitrile and analyzed by an LC-MS/MS method to determine the concentration of […] in the supernatant. The kinetic parameters of binding study, i.e., maximal binding capacity (rmax) and the binding affinity (k) are determined for A2E according to the previously reported method (Cheruvu et al., 2008).
A high percentage of soraprazan and demethoxysoraprazan—about 46% and about 53%, respectively—are found bound to the melanin A2E particles.

[4] = system: Abca4 (−/−) mice; assay: A2E concentration in eyes of Abca4 (−/−) mice after intravitreal injection, HPLCMSMS; type: in vivo; conditions: redox active small molecules and chelator, intravitreal 2 μl of 20 mg/ml, 16 hours after injection
Source text: […] […] The left eye was not treated and maintained as a control. Untreated eyes of age-matched mice lacking the Abca4 transporter were an additional control.
The concentration in each treated eye was then expressed as a percentage of the average concentration in all untreated eyes in the mice of the same age.
The left eye was not treated and maintained as a control. Untreated eyes of age-matched mice lacking the Abca4 transporter were an additional control.
The left eye was not treated and maintained as a control. Untreated eyes of age-matched mice lacking the Abca4 transporter were an additional control. […] Tryptophan is capable of absorbing and re-radiating light energy, as is riboflavin.
Water solutions were diluted 1:3 with acetonitrile and then sealed in vials for injection. 6 μL of the water acetonitrile solutions were injected onto a 2×50 mm Phenyl derived HPLC column (3 μm) and eluted with a gradient from 20% acetonitrile to 100% acetonitrile over 4 minutes at a flow rate of 500 μL/minute.

[5] = system: RPE cells; conditions: healthy monkeys, human RPE cells from aged donors, mouse model for Stargardt's Disease; EP 2080513 A1 and literature; cited from earlier work

For COCCO[C@@H]1c2ccn3c(C)c(C)nc3c2N[C@H](c2ccccc2)[C@H]1O [Soraprazan, (7R,8R,9R)-2,3-Dimethyl-8-hydroxy-7-(2-methoxyethoxy)-9-phenyl-7,8,9,10-tetrahydro-imidazo[1,2-h] [1,7]naphthyridine], the “Degradation / removal of lipofuscin in hRPE cells” value [1] was “removal of lipofuscin”, the “Degradation of the lipofuscin component A2E in cell free systems” value [2] was “degraded” and the “Proportion of compound bound to the melanin A2E particles after incubation” value [3] was “about 46%”. The response vs control in vivo at 20000 µg/mL ([4]; Mus musculus, read-out: % of A2E relative to age matched untreated) was 61%, the “Concentration A2E (μM) in the treated eye” value [4] was 31 µM and the “Removal of natural lipofuscin from RPE cells” value [5] was “remove natural lipofuscin from RPE cells”.
